# Calls of active or inactive are those of the source. The rule behind the calls is not given here.
# Experiments:
# [1] = target: Advanced glycosylation end product-specific receptor (Homo sapiens, UniProt Q15109); test: Inhibition of biotinylated human RAGE/amyloid beta interaction incubated for 120 mins by ELISA assay
# [2] = target: Sodium-dependent serotonin transporter (Homo sapiens, UniProt P31645)
# SH-SY5Y [3] = test: Cytotoxicity against human SH-SY5Y cells assessed as cell death at 5 uM incubated for 24 hrs by MTT assay; type: toxicity, cell-based
# SH-SY5Y [4] = test: Cytotoxicity against human SH-SY5Y cells assessed as reduction in cell viability at 10 to 20 uM incubated for 24 hrs by MTT assay; type: toxicity, cell-based; details: dose 10-20 µM
# [5] = target: Voltage-gated inwardly rectifying potassium channel KCNH2 (Homo sapiens, UniProt Q12809); test: Inhibition of hERG transfected in CHO cells by manual patch-clamp assay; type: toxicity, cell-based
# [6] = Metabolic stability in mouse liver microsomes assessed as half life at 100 uM in presence of NADPH and measured for 5 to 60 mins by LC-MS/MS analysis; type: ADME, Microsome; details: time 5-60 min
# [7] = Metabolic stability in mouse liver microsomes assessed as clearance at 100 uM in presence of NADPH and measured for 5 to 60 mins by LC-MS/MS analysis; type: ADME, Microsome; details: time 5-60 min, read-out: CLH
# CYP1A2 = target: T1, CYP1A2 (Homo sapiens, UniProt P05177); test: Inhibition of CYP1A2 in human liver microsomes at 10 uM incubated for 10 mins in presence of NADPH by LC-MS/MS analysis relative to control; type: ADME, Microsome
# T1 sequence (P05177 whole entry): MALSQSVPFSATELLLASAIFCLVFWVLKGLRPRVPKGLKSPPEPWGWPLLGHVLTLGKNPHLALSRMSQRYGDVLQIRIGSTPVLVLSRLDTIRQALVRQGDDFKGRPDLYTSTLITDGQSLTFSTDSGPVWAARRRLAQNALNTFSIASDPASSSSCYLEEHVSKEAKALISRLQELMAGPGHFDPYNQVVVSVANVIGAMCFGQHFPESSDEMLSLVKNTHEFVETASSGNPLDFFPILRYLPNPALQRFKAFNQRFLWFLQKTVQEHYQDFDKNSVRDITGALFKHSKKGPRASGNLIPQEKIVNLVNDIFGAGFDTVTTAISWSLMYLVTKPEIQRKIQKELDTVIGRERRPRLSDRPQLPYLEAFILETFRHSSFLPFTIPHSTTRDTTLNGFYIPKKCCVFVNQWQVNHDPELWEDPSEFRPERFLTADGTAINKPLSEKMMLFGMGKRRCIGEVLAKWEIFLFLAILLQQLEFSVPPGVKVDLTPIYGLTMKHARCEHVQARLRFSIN
# CYP2C9 = CYP2C9 (Homo sapiens, UniProt P11712); test: Inhibition of CYP2C9 in human liver microsomes at 10 uM incubated for 10 mins in presence of NADPH by LC-MS/MS analysis relative to control; type: ADME, Microsome
# CYP2C19 = CYP2C19 (Homo sapiens, UniProt P33261); test: Inhibition of CYP2C19 in human liver microsomes at 10 uM incubated for 10 mins in presence of NADPH by LC-MS/MS analysis relative to control; type: ADME, Microsome
# CYP3A4 = CYP3A4 (Homo sapiens, UniProt P08684); test: Inhibition of CYP3A4 in human liver microsomes at 10 uM incubated for 10 mins in presence of NADPH by LC-MS/MS analysis relative to control; type: ADME, Microsome
# Mus musculus [8] = test: Anti-depressant activity in ICR mouse assessed as reduction in immobility time at 30 mg/kg, po measured after 1 hr post treatment by tail suspension test; type: functional, organism-based
# [9] = Cytotoxicity against human SH-SY5Y cells assessed as cell viability at 5 uM incubated for 24 hrs by MTT assay relative to control; type: toxicity, cell-based; details: read-out: Activity
# [10] = Toxicity in ICR mouse assessed as change in brain to body weight ratio at 100 mg/kg, ip administered as single dose and measured after 2 weeks; type: organism-based; details: in vivo, 336 h
# SH-SY5Y [11] = test: Cytotoxicity against human SH-SY5Y cells assessed as effect on cell viability at 1 to 10 uM incubated for 24 hrs by MTT assay; type: toxicity, cell-based; details: dose 1-10 µM
# [12] = Cytotoxicity against human SH-SY5Y cells assessed as cell viability at 20 uM incubated for 24 hrs by MTT assay relative to control; type: toxicity, cell-based; details: read-out: Activity
# [13] = Toxicity in ICR mouse assessed as animal survival at 100 mg/kg, ip administered as single dose measured upto 2 weeks; type: organism-based; details: in vivo
# [14] = Toxicity in ICR mouse assessed as animal survival at 200 mg/kg, ip administered as single dose measured upto 2 weeks; type: organism-based; details: in vivo, 336 h
# [15] = Toxicity in ICR mouse assessed as change in liver to body weight ratio at 100 mg/kg, ip administered as single dose and measured after 2 weeks; type: organism-based; details: in vivo, 336 h
# Mus musculus [16] = test: Anti-depressant activity in ICR mouse assessed as reduction in immobility time at 60 mg/kg, po measured after 1 hr post treatment by tail suspension test; type: functional, organism-based
# [17] = Half life in mouse at 60 mg/kg, po measured for 0.25 to 24 hrs; type: ADME, organism-based; details: in vivo, time 0.25-24 hrs
# [18] = Cmax in mouse at 60 mg/kg, po measured for 0.25 to 24 hrs; type: ADME, organism-based; design: time 0.25-24 hrs, dose 60 mg/kg, route po; details: in vivo
# [19] = AUC (0 to infinity) in mouse at 60 mg/kg, po measured for 0.25 to 24 hrs; type: ADME, organism-based; design: time lower 0.25 hrs, dose 60 mg/kg, time upper 24 hrs, route po; details: in vivo
# [20] = Oral bioavailability in mouse at 60 mg/kg measured for 0.25 to 24 hrs; type: ADME, organism-based; details: in vivo, time 0.25-24 hrs
# [21] = Half life in mouse at 10 mg/kg, iv measured for 0.083 to 24 hrs; type: ADME, organism-based; details: in vivo, time 0.083-24 hrs
# [22] = Cmax in mouse at 10 mg/kg, iv measured for 0.083 to 24 hrs; type: ADME, organism-based; design: time lower 0.083 hrs, dose 10 mg/kg, time upper 24 hrs, route iv; details: in vivo
# [23] = AUC (0 to infinity) in mouse at 10 mg/kg, iv measured for 0.083 to 24 hrs; type: ADME, organism-based; design: dose 10 mg/kg, time 0.083-24 hrs, route iv; details: in vivo
# [24] = Clearance in mouse at 10 mg/kg, iv measured for 0.083 to 24 hrs; type: ADME, organism-based; details: in vivo, time 0.083-24 hrs
# [25] = Volume of distribution at steady state in mouse at 10 mg/kg, iv measured for 0.083 to 24 hrs; type: ADME, organism-based; details: in vivo, time 0.083-24 hrs, read-out: Vdss
# [26] = Toxicity in ICR mouse assessed as change in heart to body weight ratio at 100 mg/kg, ip administered as single dose and measured after 2 weeks; type: organism-based; details: in vivo, 336 h
# [27] = Toxicity in ICR mouse assessed as change in spleen to body weight ratio at 100 mg/kg, ip administered as single dose and measured after 2 weeks; type: organism-based; details: in vivo, 336 h
# [28] = Toxicity in ICR mouse assessed as change in lungs to body weight ratio at 100 mg/kg, ip administered as single dose and measured after 2 weeks; type: organism-based; details: in vivo, 336 h
# [29] = Toxicity in ICR mouse assessed as change in kidney to body weight ratio at 100 mg/kg, ip administered as single dose and measured after 2 weeks; type: organism-based; details: in vivo, 336 h
# [30] = Metabolic stability in mouse liver microsomes assessed as parent compound remaining in presence of NADPH and measured after 60 mins by LC-MS/MS analysis
# Sequence of CYP2C19 (P33261 whole entry): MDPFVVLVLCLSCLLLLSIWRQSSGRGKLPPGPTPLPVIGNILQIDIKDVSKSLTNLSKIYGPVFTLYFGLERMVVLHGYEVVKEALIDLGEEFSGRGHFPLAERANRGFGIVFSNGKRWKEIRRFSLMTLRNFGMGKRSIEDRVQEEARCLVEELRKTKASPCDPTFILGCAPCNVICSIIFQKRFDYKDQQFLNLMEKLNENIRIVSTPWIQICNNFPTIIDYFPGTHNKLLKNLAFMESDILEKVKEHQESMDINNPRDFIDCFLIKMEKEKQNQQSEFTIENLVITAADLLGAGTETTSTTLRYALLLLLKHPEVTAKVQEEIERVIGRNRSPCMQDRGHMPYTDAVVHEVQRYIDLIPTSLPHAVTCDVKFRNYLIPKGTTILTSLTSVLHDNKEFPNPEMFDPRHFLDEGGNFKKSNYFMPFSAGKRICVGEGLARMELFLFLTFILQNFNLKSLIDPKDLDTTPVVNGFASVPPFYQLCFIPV
# Sequence of Sodium-dependent serotonin transporter (P31645 whole entry): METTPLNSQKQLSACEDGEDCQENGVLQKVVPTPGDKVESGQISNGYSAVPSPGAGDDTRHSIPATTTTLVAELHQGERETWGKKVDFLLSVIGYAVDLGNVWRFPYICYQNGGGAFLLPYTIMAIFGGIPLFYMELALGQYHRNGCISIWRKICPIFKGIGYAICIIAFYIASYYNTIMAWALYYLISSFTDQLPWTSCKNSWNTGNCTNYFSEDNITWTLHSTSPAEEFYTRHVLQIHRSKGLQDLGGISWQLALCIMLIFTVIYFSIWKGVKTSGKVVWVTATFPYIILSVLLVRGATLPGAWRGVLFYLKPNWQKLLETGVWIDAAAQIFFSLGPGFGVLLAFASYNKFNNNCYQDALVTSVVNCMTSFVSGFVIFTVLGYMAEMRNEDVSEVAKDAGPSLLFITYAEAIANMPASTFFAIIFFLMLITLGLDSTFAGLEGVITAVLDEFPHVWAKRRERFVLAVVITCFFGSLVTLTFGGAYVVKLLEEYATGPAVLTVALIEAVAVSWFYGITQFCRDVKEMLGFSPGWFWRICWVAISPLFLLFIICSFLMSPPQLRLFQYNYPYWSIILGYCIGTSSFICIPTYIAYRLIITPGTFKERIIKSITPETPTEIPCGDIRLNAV
# Sequence of CYP3A4 (P08684 whole entry): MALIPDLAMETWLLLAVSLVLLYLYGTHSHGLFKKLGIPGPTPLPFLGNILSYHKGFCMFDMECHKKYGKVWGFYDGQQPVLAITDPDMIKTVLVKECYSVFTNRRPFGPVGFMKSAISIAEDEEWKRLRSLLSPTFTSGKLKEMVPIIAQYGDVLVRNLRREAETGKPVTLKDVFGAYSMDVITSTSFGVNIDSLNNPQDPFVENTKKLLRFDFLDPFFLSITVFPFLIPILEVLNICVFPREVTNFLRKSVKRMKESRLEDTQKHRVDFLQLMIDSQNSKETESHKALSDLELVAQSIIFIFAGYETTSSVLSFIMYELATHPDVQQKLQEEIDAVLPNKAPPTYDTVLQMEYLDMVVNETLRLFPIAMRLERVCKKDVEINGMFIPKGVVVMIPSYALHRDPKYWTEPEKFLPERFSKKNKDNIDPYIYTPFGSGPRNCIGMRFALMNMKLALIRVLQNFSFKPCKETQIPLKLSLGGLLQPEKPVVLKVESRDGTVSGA
# Sequence of CYP2C9 (P11712 whole entry): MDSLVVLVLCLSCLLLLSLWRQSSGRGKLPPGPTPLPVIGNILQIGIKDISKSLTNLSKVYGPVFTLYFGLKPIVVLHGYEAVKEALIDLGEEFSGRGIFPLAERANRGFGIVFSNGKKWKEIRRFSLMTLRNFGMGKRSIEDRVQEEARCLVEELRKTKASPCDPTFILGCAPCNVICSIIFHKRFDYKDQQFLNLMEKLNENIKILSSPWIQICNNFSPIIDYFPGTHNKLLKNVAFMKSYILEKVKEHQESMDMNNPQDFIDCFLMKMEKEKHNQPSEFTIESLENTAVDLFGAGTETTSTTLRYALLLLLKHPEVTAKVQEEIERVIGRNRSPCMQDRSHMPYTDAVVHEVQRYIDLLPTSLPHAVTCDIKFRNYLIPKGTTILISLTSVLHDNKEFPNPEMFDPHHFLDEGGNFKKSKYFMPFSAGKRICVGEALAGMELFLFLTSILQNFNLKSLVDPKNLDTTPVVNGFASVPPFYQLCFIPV
# Sequence of Advanced glycosylation end product-specific receptor (Q15109 whole entry): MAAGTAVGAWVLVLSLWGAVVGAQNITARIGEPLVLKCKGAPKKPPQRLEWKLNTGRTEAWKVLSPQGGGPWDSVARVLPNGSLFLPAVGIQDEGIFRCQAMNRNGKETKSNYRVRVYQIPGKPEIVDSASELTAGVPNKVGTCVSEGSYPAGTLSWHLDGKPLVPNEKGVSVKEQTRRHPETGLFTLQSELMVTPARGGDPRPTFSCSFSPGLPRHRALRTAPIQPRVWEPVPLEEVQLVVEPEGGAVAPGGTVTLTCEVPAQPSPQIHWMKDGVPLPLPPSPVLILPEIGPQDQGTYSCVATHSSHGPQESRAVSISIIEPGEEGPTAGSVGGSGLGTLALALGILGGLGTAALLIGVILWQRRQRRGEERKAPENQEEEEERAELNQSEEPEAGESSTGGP
# Sequence of Voltage-gated inwardly rectifying potassium channel KCNH2 (Q12809 whole entry): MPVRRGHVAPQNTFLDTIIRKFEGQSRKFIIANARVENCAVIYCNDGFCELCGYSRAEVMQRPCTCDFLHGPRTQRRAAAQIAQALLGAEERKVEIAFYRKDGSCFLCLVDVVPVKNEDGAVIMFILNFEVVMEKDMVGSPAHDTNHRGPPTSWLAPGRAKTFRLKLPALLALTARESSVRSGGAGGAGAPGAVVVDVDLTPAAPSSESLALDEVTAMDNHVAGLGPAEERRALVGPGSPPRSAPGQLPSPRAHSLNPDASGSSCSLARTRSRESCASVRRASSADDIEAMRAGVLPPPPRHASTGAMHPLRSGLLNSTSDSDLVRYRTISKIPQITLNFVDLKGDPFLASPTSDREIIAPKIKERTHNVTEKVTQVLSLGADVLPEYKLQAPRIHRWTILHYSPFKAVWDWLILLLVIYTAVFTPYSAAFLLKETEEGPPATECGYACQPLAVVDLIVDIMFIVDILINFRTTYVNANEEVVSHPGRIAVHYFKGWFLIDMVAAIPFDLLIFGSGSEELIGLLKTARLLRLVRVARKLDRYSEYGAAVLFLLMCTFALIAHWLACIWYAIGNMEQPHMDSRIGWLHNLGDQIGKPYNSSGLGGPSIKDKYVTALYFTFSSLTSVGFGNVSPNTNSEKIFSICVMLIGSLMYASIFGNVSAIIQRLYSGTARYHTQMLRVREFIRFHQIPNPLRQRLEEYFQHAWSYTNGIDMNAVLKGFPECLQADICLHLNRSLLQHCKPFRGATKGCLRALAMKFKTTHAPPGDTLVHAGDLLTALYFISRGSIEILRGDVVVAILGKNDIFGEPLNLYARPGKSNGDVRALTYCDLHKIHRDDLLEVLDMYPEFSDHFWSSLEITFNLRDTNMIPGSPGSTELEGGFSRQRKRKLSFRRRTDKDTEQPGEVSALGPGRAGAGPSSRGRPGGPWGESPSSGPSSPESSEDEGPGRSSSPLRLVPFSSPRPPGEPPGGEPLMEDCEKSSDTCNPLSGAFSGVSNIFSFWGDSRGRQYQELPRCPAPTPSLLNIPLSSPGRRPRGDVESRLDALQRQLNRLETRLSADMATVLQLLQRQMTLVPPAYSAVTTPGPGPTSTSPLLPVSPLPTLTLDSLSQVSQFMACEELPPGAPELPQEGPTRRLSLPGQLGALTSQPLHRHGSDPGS
compound,measurement,setting,value
CCCCc1nc(C2CCN(CCc3c[nH]c4ccc(C#N)cc34)CC2)cn1-c1ccc(Oc2ccc(Cl)cc2)cc1,IC50,[1],> 20 µM
same,IC50,[2],> 100 nM
N#Cc1ccc2[nH]cc(CCCCN3CCC(c4cn(-c5ccc(Oc6ccc(Cl)cc6)cc5)c(C5CCC5)n4)CC3)c2c1,Activity,SH-SY5Y [3],Toxic
same,Activity,SH-SY5Y [4],Toxic
CCCCc1nc(-c2ccc(OCCCN(CC)CC)cc2)cn1-c1ccc(Oc2ccc(Cl)cc2)cc1 [AZELIRAGON],Activity,SH-SY5Y [3],Toxic
same,IC50,[5],< 1 µM
same,half-life at 100 µM,[6],93.2 min
same,microsomal CLint at 100 µM,[7],14.9 µL/min/mg
same,"inhibition at 10 min, 10 µM",CYP1A2,0%
same,"inhibition at 10 min, 10 µM",CYP2C9,3.7%
same,"inhibition at 10 min, 10 µM",CYP2C19,7.9%
same,"inhibition at 10 min, 10 µM",CYP3A4,0%
same,IC50,[2],> 3000 nM
CCc1nc(C2CCN(CCCCc3c[nH]c4ccc(C#N)cc34)CC2)cn1-c1ccc(Oc2ccc(Cl)cc2)cc1,Activity,SH-SY5Y [3],Toxic
same,Activity,SH-SY5Y [4],Toxic
N#Cc1ccc2[nH]cc(CCCCN3CCN(c4ccc5oc(C(N)=O)cc5c4)CC3)c2c1 [VILAZODONE],IC50,[1],> 200 µM
same,half-life at 100 µM,[6],28.1 min
same,microsomal CLint at 100 µM,[7],49.3 µL/min/mg
same,"inhibition at 10 min, 10 µM",CYP1A2,14.4%
same,"inhibition at 10 min, 10 µM",CYP2C9,49.2%
same,"inhibition at 10 min, 10 µM",CYP2C19,51.3%
same,"inhibition at 10 min, 10 µM",CYP3A4,29%
same,Activity,Mus musculus [8],Active
CCCCCc1nc(C2CCN(CCCCc3cn(C)c4ccc(C#N)cc34)CC2)cn1-c1ccc(Oc2ccc(Cl)cc2)cc1,Activity,SH-SY5Y [3],Toxic
same,Activity,SH-SY5Y [4],Toxic
CCCCc1nc(C2CCN(Cc3c[nH]c4ccc(C#N)cc34)CC2)cn1-c1ccc(Oc2ccc(Cl)cc2)cc1,Activity,SH-SY5Y [3],Toxic
same,Activity,SH-SY5Y [4],Toxic
CCCCc1sc(C2CCN(CCc3c[nH]c4ccc(C#N)cc34)CC2)nc1-c1ccc(Oc2ccc(Cl)cc2)cc1,IC50,[1],> 20 µM
same,IC50,[2],> 100 nM
CCCc1nc(C2CCN(CCCCc3c[nH]c4ccc(C#N)cc34)CC2)cn1-c1ccc(Oc2ccc(Cl)cc2)cc1,Activity,SH-SY5Y [3],Toxic
same,Activity,SH-SY5Y [4],Toxic
CCCCc1nc(C2CCN(CCCCc3c[nH]c4ccc(C#N)cc34)CC2)cn1-c1ccc(Oc2ccc(Cl)cc2)cc1,"viability at 24 h, 5 µM",[9],4.82%
same,Activity,SH-SY5Y [3],Toxic
same,Activity,SH-SY5Y [4],Toxic
CCCCc1sc(C2CCN(CCCCc3c[nH]c4ccc(C#N)cc34)CC2)nc1-c1ccc(Oc2ccc(Cl)cc2)cc1,Activity,SH-SY5Y [3],Non-Toxic
same,Activity,SH-SY5Y [4],Toxic
CCCCc1sc(C2CCN(CCCCc3cn(C)c4ccc(C#N)cc34)CC2)nc1-c1ccc(Oc2ccc(Cl)cc2)cc1,Activity,[10],Non-Toxic
same,Activity,SH-SY5Y [11],Non-Toxic
same,"viability at 24 h, 20 µM",[12],> 80%
same,survival at 336 h,[13],100%
same,Activity,[14],Toxic
same,Activity,[15],Non-Toxic
same,IC50,[5],7.2 µM
same,half-life at 100 µM,[6],78.7 min
same,microsomal CLint at 100 µM,[7],17.6 µL/min/mg
same,"inhibition at 10 min, 10 µM",CYP1A2,17.2%
same,"inhibition at 10 min, 10 µM",CYP2C9,8.6%
same,"inhibition at 10 min, 10 µM",CYP2C19,23.7%
same,"inhibition at 10 min, 10 µM",CYP3A4,16.3%
same,Activity,Mus musculus [16],Active
same,half-life,[17],333 min
same,Cmax,[18],4940 ng/mL
same,AUC(0-inf),[19],24700 ng·h/mL
same,bioavailability,[20],17.1%
same,half-life,[21],208 min
same,Cmax,[22],51.7 µg/mL
same,AUC(0-inf),[23],23700 ng·h/mL
same,clearance,[24],7.09 mL/min/kg
same,Vd,[25],1.04 L/kg
same,Activity,[26],Non-Toxic
same,Activity,[27],Non-Toxic
same,Activity,[28],Non-Toxic
same,Activity,[29],Non-Toxic
C[C@]12CC[C@H]3[C@@H](CCC4=CC(=O)CC[C@@]43C)[C@@H]1CC[C@@H]2O [TESTOSTERONE],remaining at 1 h,[30],2.2%
CCN(CC)CCOc1cccc(Nc2nc(-c3ccc(Cl)cc3)cc(-c3ccc(Cl)cc3)n2)c1,IC50,[1],10.5 µM

# From ChEMBL document CHEMBL5154874, “Discovery of novel dual RAGE/SERT inhibitors for the potential treatment of the comorbidity of Alzheimer's disease and depression” (Eur J Med Chem, 2022)
